Test results reported in patent publication US11730741B2, “6-chromanol derivatives for use as a medicament” (Sulfateq B.V., priority 2017, dated 2023).
Marks after values point to notes of the source that are not given here.

Key:
[1] = test system: experimental in vivo models of COPD; conditions: cited from earlier work
[2] = screening of a range of SUL compounds including trolox; cited from earlier work
[3] = target: T1, human α1 adrenoceptor subtype B (Homo sapiens, UniProt P35368); test: Intracellular calcium assay (FLIPR Calcium 6), phenylephrine-stimulated CHO cells overexpressing α1B adrenoceptor; format: cell-based; conditions: for logEC50 of phenylephrine-induced calcium influx, α1B: 30 min at 37° C.
T1 construct: expressed in transfected cells; host or cells: CHO-K1
T1 sequence (P35368 1-520): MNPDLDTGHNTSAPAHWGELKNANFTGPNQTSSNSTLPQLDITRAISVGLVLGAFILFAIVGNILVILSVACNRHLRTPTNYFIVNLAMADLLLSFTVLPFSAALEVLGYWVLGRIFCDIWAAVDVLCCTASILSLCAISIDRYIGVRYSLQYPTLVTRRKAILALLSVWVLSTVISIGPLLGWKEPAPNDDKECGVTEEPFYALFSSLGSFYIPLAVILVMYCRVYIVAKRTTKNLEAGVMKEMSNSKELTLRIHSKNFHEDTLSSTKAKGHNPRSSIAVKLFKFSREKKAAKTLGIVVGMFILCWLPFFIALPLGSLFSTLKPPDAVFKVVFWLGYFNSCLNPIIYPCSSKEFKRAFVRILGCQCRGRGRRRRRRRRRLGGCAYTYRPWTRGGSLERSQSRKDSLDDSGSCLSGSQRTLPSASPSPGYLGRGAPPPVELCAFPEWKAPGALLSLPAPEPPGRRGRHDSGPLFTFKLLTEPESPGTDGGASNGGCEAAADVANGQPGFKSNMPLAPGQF
Method: (§1) CHO—K1 cells were stably transfected with a plasmid containing human α1-AR subtypes A, B and D in separate cell lines in DMEM-F12 medium with 10% FBS, 1% penicillin-streptomycin and 200 μg/mL Geneticin (G418, Invitrogen, Carlsbad, Calif.).
(§2) On the next day, CHO cells were treated with either vehicle (0.1% DMSO) or SUL-150 resp. SUL-151 for 30 min at 37° C. and stimulated with a 3-fold dilution series of PE ([…]). [Ca^2+]i was measured using the fluorescent FLIPR Calcium 6 assay kit (Molecular Devices) in immortalized CHO cells stably expressing the α1 adrenoceptor.
(§3) Initially, calcium responses induced by non-cumulative concentration series of phenylephrine were investigated using fluorescent measurements in α1A adrenoceptor-overexpressing CHO cells treated with SUL-150 and SUL-151 (FIG. 4). Fluorescent measurement data was processed and analyzed in SoftMax Pro 7 and expressed as % of baseline AUC with a 3-fold multiplier using an average of first 10 measurement points as baseline.
(§4) The “Vehicle” used in all experiments is 0.1% DMSO solution.

[4] = target: T2, human α1 adrenoceptor subtype D (Homo sapiens, UniProt P25100); test: Intracellular calcium assay (FLIPR Calcium 6), phenylephrine-stimulated CHO cells overexpressing α1D adrenoceptor; format: cell-based; conditions: for logEC50 of phenylephrine-induced calcium influx, α1D: 30 min at 37° C.
T2 construct: expressed in transfected cells; host or cells: CHO-K1
T2 sequence (P25100 1-572): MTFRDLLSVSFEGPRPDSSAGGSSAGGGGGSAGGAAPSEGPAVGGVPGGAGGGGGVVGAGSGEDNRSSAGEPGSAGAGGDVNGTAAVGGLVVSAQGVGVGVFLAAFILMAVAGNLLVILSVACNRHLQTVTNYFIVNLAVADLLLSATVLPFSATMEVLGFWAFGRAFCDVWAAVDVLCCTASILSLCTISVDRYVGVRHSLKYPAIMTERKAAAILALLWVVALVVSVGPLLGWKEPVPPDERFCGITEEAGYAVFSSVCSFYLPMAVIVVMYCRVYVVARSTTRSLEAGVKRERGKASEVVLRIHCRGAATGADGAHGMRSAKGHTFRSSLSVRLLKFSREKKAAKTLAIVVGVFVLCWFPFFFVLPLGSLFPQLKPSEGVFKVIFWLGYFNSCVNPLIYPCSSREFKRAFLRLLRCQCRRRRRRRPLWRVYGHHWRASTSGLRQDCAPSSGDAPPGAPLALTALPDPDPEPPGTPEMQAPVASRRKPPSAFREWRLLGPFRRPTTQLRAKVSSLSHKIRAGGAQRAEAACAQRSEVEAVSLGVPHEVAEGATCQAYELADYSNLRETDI
Method: as §1, §2, §3, §4

[5] = test system: isolated porcine intrarenal arteries; test: Myography: phenylephrine-induced constriction of isolated porcine intrarenal arteries; conditions: 30 min pre-incubation
Method: Porcine kidneys were obtained from a local slaughterhouse (Kroon Vlees, Gotenburgweg 30, 9723 ™ Groningen, The Netherlands) and transported on ice in normal physiological Krebs buffer containing 120 mM NaCl, 6 mM KCl, 2.5 mM CaCl2×2H2O, 1.2 mM MgCl2×6H2O, 1.2 mM NaH2PO4×H2O, 25 mM NaHCO3 and 11.4 mM D-(+)-Glucose monohydrate (all ingredients were purchased from Merck) in ultrapure water.
The renal artery tree was dissected from the kidney, cleaned of surrounding connective tissue and cut into equally-sized ring segments (2 mm in length). In some rings, endothelium denudation was performed by gentle rubbing of the intimal surface with a paper clip. Rings were mounted in organ baths as described previously (Buikema et al., 2000).
Arterial rings were washed thoroughly by replacing Krebs buffer and allowed to equilibrate for a period of 60 min under 1.4 g of resting tension before they were assessed for viability by inducing 2 subsequent constrictions with KCl (60 mM). […] After washout and stabilization, rings were treated for 30 minutes by incubation with vehicle (0.1% DMSO), SUL-121, SUL-150 or SUL-151, followed by subsequent incubation with cumulative doses of phenylephrine.
Dose-dependent constriction responses to phenylephrine (10^−8M-10^−4M) were recorded in isolated porcine intrarenal arteries. Buffer was warmed to 37° C. and aerated with 95% O2 and 5% CO2 before use.
Vascular constriction responses are expressed as percentage of final response to KCl. Data are expressed as mean±SEM. *p<0.05.
To explore the effects of 2R and 2S-(6-hydroxy-2,5,7,8-tetramethylchroman-2-yl)(piperazin-1-yl)methanone (resp. SUL-150 and SUL-151) on constriction of isolated porcine intrarenal arteries, cumulative dose response curves to the α1 adrenoceptor agonist phenylephrine (PE) were constructed in the presence and absence of SUL-150 resp SUL-151 (FIG. 1).

α1A adrenoceptor = target: T3, α1A adrenoceptor (Homo sapiens, UniProt P35348); test: Radioligand displacement binding assay with [7-Methoxy-3H]-prazosin in α1A adrenoceptor transgenic CHO cells
T3 construct: expressed in transfected cells; host or cells: CHO
T3 sequence (P35348 1-466): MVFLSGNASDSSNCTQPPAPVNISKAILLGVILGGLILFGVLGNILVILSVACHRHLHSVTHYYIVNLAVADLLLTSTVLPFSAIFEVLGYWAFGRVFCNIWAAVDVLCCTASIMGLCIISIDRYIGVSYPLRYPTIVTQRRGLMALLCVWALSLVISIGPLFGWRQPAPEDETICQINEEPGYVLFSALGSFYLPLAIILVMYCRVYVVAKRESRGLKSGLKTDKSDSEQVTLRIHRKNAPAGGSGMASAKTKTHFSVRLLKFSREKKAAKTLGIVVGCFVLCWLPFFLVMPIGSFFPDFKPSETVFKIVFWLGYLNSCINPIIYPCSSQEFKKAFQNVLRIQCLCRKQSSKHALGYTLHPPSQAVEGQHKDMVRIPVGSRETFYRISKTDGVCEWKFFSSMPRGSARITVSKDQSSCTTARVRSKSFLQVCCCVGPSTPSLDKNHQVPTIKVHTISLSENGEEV
Text: We therefore explored whether SUL-150 could directly interact with the α1 adrenoceptor as a receptor antagonist.

[6] = target: T4, human α1 adrenoceptor subtype A (Homo sapiens, UniProt P35348); test: Intracellular calcium assay (FLIPR Calcium 6), phenylephrine-stimulated CHO cells overexpressing α1A adrenoceptor; format: cell-based; conditions: for logEC50 of phenylephrine-induced calcium influx, α1A: 30 min at 37° C.
T4 construct: expressed in transfected cells; host or cells: CHO-K1
T4 sequence (P35348 1-466): T3 sequence (P35348 1-466)
Method: as §1, §2, §3, §4

[7] = in the presence of 10 μM compound
[8] = in the presence of 30 μM compound
[9] = in the presence of 100 μM compound

Structure (SMILES)	effect on PE-induced calcium transients, α1B subtype, in words [3]	effect on PE-induced calcium transients, α1D subtype, in words [4]	logEC50 of phenylephrine-induced constriction responses [5, 7]	logEC50 of phenylephrine-induced constriction responses [5, 8]	logEC50 of phenylephrine-induced constriction responses [5, 9]	effect on PE-induced calcium transients, α1A subtype, in words [6]	logEC50 of phenylephrine-induced calcium influx, α1A ([6]; 10 μM compound)	logEC50 of phenylephrine-induced calcium influx, α1A ([6]; 30 μM compound)	logEC50 of phenylephrine-induced calcium influx, α1A ([6]; 100 μM compound)	also measured
Cc1c(C)c2c(c(C)c1O)CCC(C)(C(=O)N1CCNCC1)O2 (racemic) [SUL-121, (6-hydroxy-2,5,7,8-tetramethylchroman-2-yl)(piperazin-1-yl)methanone]										LPS-induced airway neutrophilia [1]: dose-dependently reduced; LPS-induced attenuation of H2S production [1]: dose-dependently reduced; neutrophilia-related as well as unrelated ROS production [1]: dose-dependently reduced; nuclear translocation of the antioxidative response regulator Nrf2 [1]: inhibited; anti-oxidant effect [2]: very potent anti-oxidant effect
Cc1c(C)c2c(c(C)c1O)CC[C@@](C)(C(=O)N1CCNCC1)O2 [SUL-151, (2S)(6-hydroxy-2,5,7,8-tetramethylchroman-2-yl)(piperazin-1-yl)methanone]	did not affect calcium transients	did not affect calcium transients	−5.82 ± 0.05	−5.89 ± 0.04	−5.77 ± 0.04	did not affect calcium transients	−8.09 ± 0.10	−8.09 ± 0.11	−7.98 ± 0.10	concentrations at which [7-Methoxy-3H]-prazosin was displaced (α1A adrenoceptor): higher than 10 μM
Cc1c(C)c2c(c(C)c1O)CCC(C)(C(=O)N1CCNCC1)O2 (stereo not shown) [SUL-150, (6-hydroxy-2,5,7,8-tetramethylchroman-2-yl)(piperazin-1-yl)methanone]	shifted dose response curves rightwards	shifted dose response curves rightwards	−5.11 ± 0.09*	−5.06 ± 0.06*	−4.44 ± 0.09*	shifted dose response curves rightwards	−7.62 ± 0.03	−7.28 ± 0.03	−6.88 ± 0.03	logEC50 of phenylephrine-induced calcium influx, α1B ([3]; 10 μM compound): −7.51 ± 0.08; logEC50 of phenylephrine-induced calcium influx, α1B ([3]; 30 μM compound): −7.24 ± 0.07; logEC50 of phenylephrine-induced calcium influx, α1B ([3]; 100 μM compound): −6.72 ± 0.08; logEC50 of phenylephrine-induced calcium influx, α1D ([4]; 10 μM compound): −7.37 ± 0.10; logEC50 of phenylephrine-induced calcium influx, α1D ([4]; 30 μM compound): −7.04 ± 0.06; logEC50 of phenylephrine-induced calcium influx, α1D ([4]; 100 μM compound): −6.80 ± 0.10; potency in displacing the radioligand, compared to SUL-151, in words (α1A adrenoceptor): significantly more potent
